Source: ChEMBL document CHEMBL1201862, “PubChem BioAssay data set” (2004)
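A five-concentration, 48-hour dose response in 96-well plates underlies each endpoint, interpolated linearly between surrounding concentrations. At the GI50, growth is halved.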 Calls of active or inactive are those of the source. Cut-off read from the data, not from the text of the source: active = GI50 up to about 1.1 µM and inactive = higher.

Key:
Experiment in all cases: inhibition of tumour cell growth, NCI panel, 48 h
ACHN = system: ACHN
HOP-62 = system: HOP-62
MDA-N = system: MDA-N
HT-29 = system: HT-29
786-0 = system: 786-0
SN12C = system: SN12C
HOP-92 = system: HOP-92
SNB-19 = system: SNB-19
HCT-116 = system: HCT-116
TK-10 = system: TK-10
HL-60 = system: HL-60
PC-3 = system: PC-3
MDA-MB-231 = system: MDA-MB-231
CCRF-CEM = system: CCRF-CEM
CAKI-1 = system: CAKI-1
Malme-3M = system: Malme-3M
SK-MEL-2 = system: SK-MEL-2
SF-539 = system: SF-539
SK-MEL-5 = system: SK-MEL-5
M14 = system: M14

Measured: GI50

O=C1C2C=CC1C1C(=O)OC(=O)C21 (stereo not given)
inactive: ACHN > 100 µM | HOP-62 > 100 µM | MDA-N > 100 µM | HT-29 > 100 µM | 786-0 > 100 µM | SN12C > 100 µM | HOP-92 > 100 µM | SNB-19 > 100 µM | HCT-116 > 100 µM | TK-10 > 100 µM | HL-60 > 100 µM | PC-3 > 100 µM | MDA-MB-231 > 100 µM | CCRF-CEM > 100 µM | CAKI-1 > 100 µM | Malme-3M > 100 µM | SK-MEL-2 > 100 µM | SF-539 > 100 µM | SK-MEL-5 > 100 µM | M14 > 100 µM

Cc1cccc2sc(NC(=O)NS(=O)(=O)n3cnc4ccccc43)nc12
inactive: ACHN 32.8 µM | HOP-62 34.7 µM | MDA-N 31.3 µM | HT-29 33.9 µM | 786-0 33.8 µM | SN12C 25.9 µM | HOP-92 15.3 µM | SNB-19 38 µM | HCT-116 28.1 µM | TK-10 35.6 µM | HL-60 31.5 µM | PC-3 28.6 µM | MDA-MB-231 27 µM | CCRF-CEM 76.6 µM | CAKI-1 34.7 µM | Malme-3M 25.2 µM | SK-MEL-2 18.7 µM | SF-539 24 µM | SK-MEL-5 21.7 µM | M14 31.3 µM

Cc1cc(Nc2ccc(S(=O)(=O)O)cc2)c2ccccc2n1
inactive: ACHN > 100 µM | HOP-62 40.9 µM | MDA-N > 100 µM | HT-29 > 100 µM | 786-0 > 100 µM | SN12C > 100 µM | HOP-92 > 100 µM | SNB-19 > 100 µM | HCT-116 > 100 µM | TK-10 > 100 µM | HL-60 > 100 µM | PC-3 > 100 µM | MDA-MB-231 > 100 µM | CCRF-CEM > 100 µM | CAKI-1 > 100 µM | Malme-3M > 100 µM | SK-MEL-2 > 100 µM | SF-539 > 100 µM | SK-MEL-5 > 100 µM | M14 > 100 µM

NCCNCCCNC(=O)c1cc(-c2ccccc2)nc2ccccc12
inactive: ACHN 38.1 µM | HOP-62 27.2 µM | MDA-N 25.5 µM | HT-29 36.2 µM | 786-0 22.3 µM | SN12C 40.8 µM | HOP-92 13.7 µM | SNB-19 50 µM | HCT-116 35.6 µM | TK-10 62.7 µM | HL-60 30.6 µM | PC-3 51.3 µM | MDA-MB-231 31.3 µM | CCRF-CEM 21 µM | CAKI-1 52.4 µM | Malme-3M 16.8 µM | SK-MEL-2 21 µM | SF-539 19.6 µM | SK-MEL-5 15.6 µM | M14 15.1 µM

COc1ccc(/C=C2\CCC(C)(CN(C)C)C2=O)cc1Br (stereo not given)
inactive: ACHN 24.6 µM | HOP-62 49.3 µM | MDA-N 19.1 µM | HT-29 21.9 µM | 786-0 19.6 µM | SN12C 17.5 µM | HOP-92 29.9 µM | SNB-19 23 µM | HCT-116 17.2 µM | TK-10 22 µM | HL-60 34.8 µM | PC-3 20.4 µM | MDA-MB-231 36.1 µM | CCRF-CEM 37.5 µM | CAKI-1 32.7 µM | Malme-3M 25.8 µM | SK-MEL-2 18.7 µM | SF-539 21.5 µM | SK-MEL-5 14.8 µM | M14 19.8 µM

O=C(c1ccccc1)c1ccc2[nH]c(-c3c(Cl)c(Cl)c(Cl)c(Cl)c3C(=O)N/N=C/c3cccc(Oc4ccccc4)c3)nc2c1
inactive: ACHN > 100 µM | HOP-62 65.2 µM | MDA-N 46.5 µM | HT-29 > 100 µM | 786-0 > 100 µM | SN12C > 100 µM | HOP-92 55.7 µM | SNB-19 69.2 µM | HCT-116 76.6 µM | TK-10 > 100 µM | HL-60 17.6 µM | PC-3 77.4 µM | MDA-MB-231 > 100 µM | CCRF-CEM 39.6 µM | CAKI-1 > 100 µM | Malme-3M > 100 µM | SK-MEL-2 46.2 µM | SF-539 > 100 µM | SK-MEL-5 90.6 µM | M14 > 100 µM

NS(=O)(=O)c1ccc(/N=N/c2ccc(O)c(O)c2)cc1
inactive: ACHN 3.22 µM | HOP-62 27.4 µM | MDA-N 20.6 µM | HT-29 27.2 µM | 786-0 12.4 µM | SN12C 10.4 µM | HOP-92 23.7 µM | SNB-19 21.8 µM | HCT-116 9.71 µM | TK-10 24.6 µM | HL-60 16.9 µM | PC-3 20.6 µM | MDA-MB-231 10.7 µM | CCRF-CEM 3.56 µM | CAKI-1 36.2 µM | Malme-3M 21.3 µM | SK-MEL-2 17.2 µM | SF-539 15.9 µM | SK-MEL-5 6.19 µM | M14 24.5 µM
